Measurements published in patent US7982094B2, “Gene encoding lignan methylation enzyme” (Sunitory Holdings Limited, priority 2006, dated 2011).

Columns and labels:
SiOMT1 [1] = experiment: Assay for COMT activity of SiOMT1 on caffeic acid; assay type: biochemical, Sesamum indicum; conditions: 0.4 mg/ml caffeic acid, 10 mM SAM, 30° C. for an hour, HPLC and LC-MS; product ferulic acid
Procedure: (§1) The methyltransferase activity of SiOMT1 and SrOMT1 expressed in EXAMPLES 5 and 7 on caffeic acid was studied. In a reaction tube, 10 μl of 0.4 mg/ml caffeic acid, 200 μl of the crude enzyme solution of SiOMT expressed in Escherichia coli and 10 μl of 10 mM SAM were mixed, and the mixture was reacted at 30° C. for an hour.

SrOMT1 [2] = experiment: Assay for COMT activity of SrOMT1 on caffeic acid; assay type: biochemical, Sesamum radiatum; conditions: 0.4 mg/ml caffeic acid, 10 mM SAM, 30° C. for an hour, HPLC and LC-MS; product ferulic acid
Procedure: as §1

SiOMT1 [3] = experiment: Lignan methylation activity assay of recombinant SiOMT1 (crude enzyme from E. coli, SAM, HPLC/LC-MS of products); assay type: biochemical, Sesamum indicum; conditions: substrate solution 1 mg/ml, 10 mM SAM, 30° C. for 2 hours, HPLC at 280 nm
Procedure: (§2) Sesame lignan used as a substrate for the enzyme reaction was dissolved in a small quantity of DMSO and then in 70% ethanol to prepare the substrate solution (1 mg/ml). Sesame lignan can be produced, for example, by extracting and purifying from sesame in accordance with publicly known methods (J. Bioscience, Biotechnology and Biochemistry, 67: 1693 (1993)). After 10 μl of the substrate solution, 200 μl of the aforesaid crude enzyme solution of SiOMT expressed in Escherichia coli and 10 μl of 10 mM S-adenosyl-L-methionine (SAM) were mixed in a reaction tube, the mixture was reacted at 30° C. for 2 hours.
The enzyme reaction was terminated by adding 100% acetonitrile (250 μl) containing 0.1% trifluoroacetic acid (TFA) to the reaction tube. The reaction tube was vigorously agitated with a vortex mixer, followed by centrifugation at 15,000 rpm at 4° C. for 5 minutes. The resulting supernatant was washed through a filter (pore size of […], 4 mm Millex-LH, Millipore) and then analyzed using high performance liquid chromatography (hereinafter HPLC). The conditions for the analysis of lignans and methylated lignans are as follows.
(§3) Liquid chromatography (Lc-2010c, Shimadzu Corporation) was performed using a C-30 column (Nomura Chemical, C30-UG-5, […]). […] Absorption was monitored at 280 nm to detect the compounds contained in a sample. The spectra between 190 nm and 400 nm for each peak of the compounds were measured using SPD-10AV (Shimadzu Corporation) to detect substances having two absorption maxima (230 nm and 280 nm) characteristic of lignans. Under the conditions, authentic pinoresinol is detected at about 11.8 minutes, authentic piperitol at about 15.5 minutes and authentic sesaminol at about 16.8 minutes.
Next, the molecular weight of the novel lignan produced with SiOMT1 was determined by the LC-MS analysis (liquid chromatography (LC): Waters 2795 (Waters Inc.), mass spectrograph: QUATRO micro (MICROMASS, Inc.)). […]
Under the conditions, peak A is detected at about 8.3 minutes and peak B at about 11.3 minutes (FIGS. 3-5). […]

SiOMT2 = experiment: Lignan methylation activity assay of recombinant SiOMT2 (crude enzyme from E. coli, SAM, HPLC of products); assay type: biochemical, Sesamum indicum; conditions: substrate solution 1 mg/ml, 10 mM SAM, 30° C. for 2 hours, HPLC at 280 nm
Procedure: as §2
The enzyme reaction was terminated by adding 100% acetonitrile (250 μl) containing 0.1% trifluoroacetic acid (TFA) to the reaction tube. […] The resulting supernatant was washed through a filter (pore size of […], 4 mm Millex-LH, Millipore) and then analyzed using high performance liquid chromatography (hereinafter HPLC). […]
as §3, with “Under the conditions, authentic pinoresinol is detected at about 11.8 minutes, authentic piperitol at about 15.5 minutes and authentic sesaminol at about 16.8 minutes.” left out

SrOMT1 [4] = experiment: Lignan methylation activity assay of recombinant SrOMT1 (crude enzyme from E. coli, SAM, HPLC of products); assay type: biochemical, Sesamum radiatum; conditions: as in EXAMPLE 6: 10 mM SAM, 30° C. for 2 hours

Row | Molecule | methyltransferase (COMT) activity of SiOMT1 on caffeic acid (SiOMT1 [1]) | methyltransferase (COMT) activity of SrOMT1 on caffeic acid (SrOMT1 [2]) | methylation of the substrate by SiOMT1 (lignan methylation activity) (SiOMT1 [3]) | methylation of the substrate by SiOMT2 (lignan methylation activity) (SiOMT2) | methylation of the substrate by SrOMT1 (lignan methylation activity) (SrOMT1 [4])
1 | O=C(O)/C=C/c1ccc(O)c(O)c1 [caffeic acid] | had the COMT activity | had the COMT activity |  |  | 
2 | COc1cc([C@@H]2OC[C@@H]3[C@H]2CO[C@H]3c2ccc3c(c2)OCO3)ccc1O [piperitol] |  |  | having the monomethylation activity | any new product was not detected | exhibited the methylation activity
3 | Oc1cc2c(cc1[C@H]1OC[C@H]3[C@@H]1CO[C@@H]3c1ccc3c(c1)OCO3)OCO2 [sesaminol] |  |  | did not show any methylation activity |  | 
4 | pinoresinol |  |  | having the monomethylation activity | any new product was not detected | exhibited the methylation activity
